Source: article PMC7144209, “Design, synthesis and anticancer activity of naphthoquinone derivatives” (Journal of Enzyme Inhibition and Medicinal Chemistry, 2020)

How the values were obtained:
[1] = tested on: L02; experiment: MTT cell viability assay, L02 cells; type: cell-based; details: Homo sapiens, n = 3
[2] = tested on: SGC-7901, MGC-803, SMMC-7721, U-87 cell lines; experiment: MTT anticancer activity, summary in words over the cell line panel; type: cell-based; details: MTT assay
Procedure: (§1) MGC-803, SGC-7901, U87 and SMMC-7721 cells were plated in 96-well plate at 7000 per well. Cells were incubated with the different concentrations of the compounds for 48 h. Subsequently, MTT (0.5 mg/mL) were used to test the cell viability, then 150 μL DMSO was added to each well after cells were incubated for 4 h and the absorbance was measured at 492 nm.
Compounds 1–24 were detected for anticancer activities against SGC-7901, MGC-803, SMMC-7721, U-87 cell lines in vitro by the MTT assay, and ADM was used as the positive control. From Table 1, when the phenolic hydroxyls of naphthoquinone moiety were converted to ether, the activity was missing. […] So colony formation assay of this compound (Figure 4) was used to investigate the effect of it on cell proliferation in SGC-7901 cells. The experiment examined the ability for producing colonies after the cells were treated with the cell death agents[35]^,[36].

[3] = tested on: SGC-7901; experiment: MTT cell viability assay, SGC-7901 cells; type: cell-based, human; details: Homo sapiens, SGC-7901, 48 h, n = 3
Procedure: (§2) MGC-803, SGC-7901, U87 and SMMC-7721 cell lines were cultured in DMEM supplemented with 10% foetal bovine serum, 100 IU/mL penicillin/streptomycin. The cells were incubated in an atmosphere containing 5% CO2 at 37 °C.
as §1

[4] = tested on: U87; experiment: MTT cell viability assay, U87 cells; type: cell-based; details: Homo sapiens, U-87 MG, 48 h, n = 3
Procedure: as §2, §1

[5] = tested on: SMMC-7721; experiment: MTT cell viability assay, SMMC-7721 cells; type: cell-based; details: Homo sapiens, 48 h, n = 3
Procedure: as §2, §1

[6] = tested on: MGC-803; experiment: MTT cell viability assay, MGC-803 cells; type: cell-based; details: Homo sapiens, MGC-803, 48 h, n = 3
Procedure: as §2, §1

SMILES: CC(C)=CCC(OC(=O)CCC(=O)Nc1ccc(F)c(C(F)(F)F)c1)C1=CC(=O)c2c(O)ccc(O)c2C1=O (stereo not drawn) [Compound 11, 1-(5,8-dihydroxy-1,4-dioxo-1,4-dihydronaphthalen-2-yl)-4-methylpent-3-en-1-yl-4-((4-fluoro-3-(trifluoromethyl)phenyl)amino)-4-oxobutanoate]
- IC50 [1]: 4 ± 0.1 µM
- anticancer activity (in words) [2]: good activity
- IC50 [3]: 2.25 ± 1.5 µM
- IC50 [4]: 3.75 ± 0.77 µM
- IC50 [5]: 9.5 ± 0.8 µM
- IC50 [6]: 8.4 ± 3.1 µM

SMILES: CC(C)=CCC(OC(=O)CCC(=O)Nc1ccc(OC(F)(F)F)cc1)C1=CC(=O)c2c(O)ccc(O)c2C1=O (stereo not drawn) [Compound 13, 1-(5,8-dihydroxy-1,4-dioxo-1,4-dihydronaphthalen-2-yl)-4-methylpent-3-en-1-yl-4-oxo-4-((4-(trifluoromethoxy)phenyl)amino)butanoate]
- IC50 [1]: 15.8 ± 1.1 µM
- anticancer activity (in words) [2]: good activity
- IC50 [3]: 7.8 ± 3.7 µM
- IC50 [4]: 3.46 ± 0.31 µM
- IC50 [5]: 16.9 ± 2.2 µM
- IC50 [6]: 10.2 ± 2.9 µM

SMILES: CC(C)=CCC(OC(=O)CCC(=O)NCCc1ccc(F)cc1)C1=CC(=O)c2c(O)ccc(O)c2C1=O (stereo not drawn) [Compound 20, 1-(5,8-dihydroxy-1,4-dioxo-1,4-dihydronaphthalen-2-yl)-4-methylpent-3-en-1-yl 4-((4-fluorophenethyl)amino)-4-oxobutanoate]
- IC50 [1]: 12.3 ± 0.5 µM
- anticancer activity (in words) [2]: good activity
- IC50 [3]: 13.3 ± 0.6 µM
- IC50 [4]: 5.2 ± 1.4 µM
- IC50 [5]: 18.6 ± 3.6 µM
- IC50 [6]: 3.5 ± 1.4 µM

SMILES: CC(C)=CCC(OC(=O)CCC(=O)N1CCCc2ccccc21)C1=CC(=O)c2c(O)ccc(O)c2C1=O (stereo not drawn) [Compound 9, 1-(5,8-dihydroxy-1,4-dioxo-1,4-dihydronaphthalen-2-yl)-4-methylpent-3-en-1-yl-4-(3,4-dihydroquinolin-1(2H)-yl)-4-oxobutanoate]
- IC50 [1]: 12.1 ± 0.8 µM
- anticancer activity (in words) [2]: good activity
- IC50 [3]: 8.6 ± 2.5 µM
- IC50 [4]: 4.45 ± 0.66 µM
- IC50 [5]: 12.3 ± 0.1 µM
- IC50 [6]: 3.1 ± 0.1 µM
